Like-named read-outs stand apart in the source and are kept apart here.
Target: MTH1 (Homo sapiens, UniProt P36639)
Assay: MTH1 enzymatic assay (malachite green, coupled to pyrophosphatase)
Assay type: biochemical
Procedure: MTH1 catalyzes the hydrolysis of dGTP to dGMP and PPi. By coupling the reaction to pyrophosphatase added in excess PPi is converted to Pi that can be detected by using the malachite green assay reagent. […] 96-well method: Briefly, the compound to be analyzed is diluted in DMSO in a 1:3 dilution series generating 12 different compound concentrations giving a final DMSO concentration of 1% in the assay well. MTH1 diluted in assay buffer (100 mM Tris-acetate, 40 mM NaCl, 10 mM magnesium acetate, 1 mM DTT and 0.005% Tween 20) fortified with E. coli pyrophosphatase (0.2 U/ml) is added to a final concentration of 6 nM. dGTP diluted in assay buffer is added to a final concentration of 100 μM. The reaction mixture is incubated for 15 minutes at 22° C. To 100 μl reaction mixture, 25 μl Malachite green assay regent (0.095% Malachite green in 17% H2SO4, 1.5% Ammonium molybdate, 0.17% Tween 20) is added, followed by incubation with shaking for 15 minutes at 22° C. The absorbance of the assay plate is read at 630 nm using a Hidex Sense Multilabel plate reader. The IC50 value is determined by fitting a dose response curve to the data points using nonlinear regression analysis and the equation Y=Bottom+(Top-Bottom)/(1+10^((Log IC50−X)*HillSlope)), where Y is the read absorbance at 630 nm and X is log [compound].
384-Well Method: The compounds to be tested are nano-dispensed, in 11 concentrations, directly in assay plates, with a final DMSO concentration <1%. The protocol and the reaction mixture are the same as for the 96-well assay, with a total reaction volume of 50 μl/well to which 10 μl of Malachite green reagent is added. All additions to the assay plates are made with multidrop.

[1] = dGTP 100 μM, MTH1 6 nM, 96- or 384-well format, read-out: IC50

IC50 [1] [nM] | IC50 [nM] | Structure (SMILES)
< 200 |  | Nc1nc(NC2CCCCC2)cc(-c2ccccc2)n1 [Example 1, 4-N-cyclohexyl-6-phenylpyrimidine-2,4-diamine]
< 200 |  | CCNc1cc(-c2ccccc2)nc(N)n1 [Example 2, 4-N-ethyl-6-phenylpyrimidine-2,4-diamine]
< 200 |  | Nc1nc(NC2CCOCC2)cc(-c2ccccc2)n1 [Example 7, 4-N-(oxan-4-yl)-6-phenylpyrimidine-2,4-diamine]
< 200 |  | Nc1nc(NC2CC2)cc(-c2ccc(Cl)cc2)n1 [Example 13, 6-(4-chlorophenyl)-4-N-cyclopropylpyrimidine-2,4-diamine]
< 200 |  | Nc1nc(NC2CC2)cc(-c2cccc(C(F)(F)F)c2)n1 [Example 16, 4-N-cyclopropyl-6-[3-(trifluoromethyl)phenyl]pyrimidine-2,4-diamine]
< 200 |  | Nc1nc(NC2CC2)cc(-c2cccc(Cl)c2)n1 [Example 19, 6-(3-chlorophenyl)-4-N-cyclopropylpyrimidine-2,4-diamine]
< 200 |  | CNc1cc(-c2cn(S(=O)(=O)c3ccc(C)cc3)c3ccccc23)nc(N)n1 [Example 23, 4-N-methyl-6-[1-(4-methylbenzenesulfonyl)-1H-indol-3-yl]pyrimidine-2,4-diamine]
< 200 |  | CNc1cc(-c2cn(S(=O)(=O)c3ccccc3)c3ccccc23)nc(N)n1 [Example 26, 6-[1-(benzenesulfonyl)-1H-indol-3-yl]-4-N-methylpyrimidine-2,4-diamine]
< 200 |  | Cc1ccc(S(=O)(=O)n2cc(-c3cc(NC4CC4)nc(N)n3)c3ccccc32)cc1 [Example 27, 4-N-cyclopropyl-6-[1-(4-methylbenzenesulfonyl)-1H-indol-3-yl]pyrimidine-2,4-diamine]
< 200 |  | Nc1nc(NC2CC2)cc(-c2cn(S(=O)(=O)c3ccccc3)c3ccccc23)n1 [Example 28, 6-[1-(benzenesulfonyl)-1H-indol-3-yl]-4-N-cyclopropylpyrimidine-2,4-diamine]
< 200 |  | CNc1cc(-c2cn(S(=O)(=O)c3ccccc3)c3ncccc23)nc(N)n1 [Example 29, 6-[1-(benzenesulfonyl)-1H-pyrrolo[2,3-b]pyridin-3-yl]-4-N-methylpyrimidine-2,4-diamine]
< 200 |  | CNc1cc(-c2cccc3c2ccn3S(=O)(=O)c2ccccc2)nc(N)n1 [Example 30, 6-[1-(benzenesulfonyl)-1H-indol-4-yl]-4-N-methylpyrimidine-2,4-diamine]
< 200 |  | CNc1cc(-c2ccc(OC)cc2)nc(N)n1 [Example 33, 6-(4-methoxyphenyl)-4-N-methylpyrimidine-2,4-diamine]
< 200 |  | CNc1cc(-c2cc(C(F)(F)F)cc(C(F)(F)F)c2)nc(N)n1 [Example 34, 6-[3,5-bis(trifluoromethyl)phenyl]-4-N-methylpyrimidine-2,4-diamine]
< 200 |  | CNc1cc(-c2cccc(C(F)(F)F)c2)nc(N)n1 [Example 37, 4-N-methyl-6-[3-(trifluoromethyl)phenyl]pyrimidine-2,4-diamine]
 | < 200 | CNc1cc(-c2cccc(Cl)c2Cl)nc(N)n1 [Example 38, 6-(2,3-dichlorophenyl)-4-N-methylpyrimidine-2,4-diamine]
< 200 |  | CNc1cc(-c2ccc3c(c2)OCO3)nc(N)n1 [Example 39, 6-(2H-1,3-benzodioxol-5-yl)-4-N-methylpyrimidine-2,4-diamine]
< 200 |  | CNc1cc(-c2cccc(NC(C)=O)c2)nc(N)n1 [Example 41, N-{3-[2-amino-6-(methylamino)pyrimidin-4-yl]phenyl}acetamide]
< 200 |  | CNc1cc(-c2ccc(NC(C)=O)cc2)nc(N)n1 [Example 47, N-{4-[2-amino-6-(methylamino)pyrimidin-4-yl]phenyl}acetamide]
< 200 |  | CNc1cc(-c2ccc(OC)nc2)nc(N)n1 [Example 49, 6-(6-methoxypyridin-3-yl)-4-N-methylpyrimidine-2,4-diamine.]

Source: patent US10632125B2, “MTH1 inhibitors for treatment of inflammatory and autoimmune conditions” (THOMAS HELLEDAYS STIFTELSE FÖR MEDICINSK FORSKNING, priority 2014, dated 2020)
